Source: article PMC8805316, “NanoBRET in C. elegans illuminates functional receptor interactions in real time” (BMC Molecular and Cell Biology, 2022)
Residues, ends and D or L forms follow the SMILES beside them. No end group written: not given here. *: point of attachment. 5TAMRA = CN(C)c1ccc2c(c1)Oc1cc(N(C)C)ccc1C21OC(=O)c2cc(C(=O)*)ccc21

Assays:
Nluc::NPR-11 [1] = target: T1, Nluc::NPR-11 (Caenorhabditis elegans, UniProt Q18179); test: biochemical; assay type: binding, C. elegans
T1 construct: expressed in transfected cells; host or cells: transgenic C. elegans (extrachromosomal array, npr-11 knockout background), incised young adult worms
Protocol: (§1) All measurements were conducted using synchronized young adult worms (1 day post L4). Individuals were washed twice with HBSS (Hanks’ balanced salt solution with 25 mM HEPES, pH 7.4, 37 °C) and the number of worms/ μl was calculated.
(§2) For luminescence measurements of intact worms, animals (1; 10; 50; 100 or 500) were directly transferred into the wells of a white flat-bottom 384-well plate in 50 μl HBSS buffer. Worms to be cut were pre-washed with M9 + 0.1% Tween to avoid sticking of worms to the dish and subsequently transferred in 2 ml of HBSS. Incisions were made in the middle of the body with a scalpel blade and worms were immediately afterwards transferred with a glass pipette into HBSS buffer on ice. For mechanically cracking, a worm suspension was homogenized in tubes with 150 μl HBSS and six glass beads (Ø = 3 mm) using with a Precellys homogenizer (Bertin instruments, France) for 40 s at 5000 rpm. Samples were placed on ice until further usage.
For BRET binding assays in vivo, the nanoluciferase (Nluc) was applied as energy donor and either peptides labeled with the TAM fluorophore or the mNeonGreen fluorescent protein fused to a receptor served as acceptor.
30 Nluc-expressing worms with incisions in 50 μl BRET buffer were incubated with dissolving buffer or peptide solutions of final concentrations ranging from 0.05–10 μM in a 384-well plate. During a 25 min incubation with gentle shaking, 10 μl Nano-Glo Live Cell Reagent (N2011, Promega, USA) of a 5x stock were added according to manufacturer’s instructions after 15 min to each well. Competition-binding assays were performed similarly, but additionally, unlabeled peptide (final concentrations 0.016–10 μM) was pipetted into each well and 5 μl of a 10x stock Nano-Glo Live cell reagent was applied after 15 min.
Luminescence (L) and fluorescence (F) were detected with a microplate plate reader (Tecan Spark) using the following filter set: donor = 430–470 nm, acceptor = 550–700 nm with 1000 ms integration time. BRET was calculated by dividing F values by L values. For each experiment, the background signal of donor-only cells was subtracted, such that the BRET ratio at 0 μM ligand equals 0.00. In Fig. 3B (left) and Fig. 3D, the mean of n = 4 (NPR-11) or n = 3 (LAT-1) independent, individually background-corrected single experiments is presented.

NPR-11 [2] = target: T2, NPR-11 (Caenorhabditis elegans, UniProt Q18179); test: cAMP reporter gene assay, transfected HEK293 cells (Fig. S3B); assay type: cell-based, C. elegans; set-up: expressed in transfected cells; host or cells: HEK293 cells, co-transfected with reporter plasmid pGL4.29 [luc2P/CRE/Hygro]
T2 sequence (Q18179 1-402): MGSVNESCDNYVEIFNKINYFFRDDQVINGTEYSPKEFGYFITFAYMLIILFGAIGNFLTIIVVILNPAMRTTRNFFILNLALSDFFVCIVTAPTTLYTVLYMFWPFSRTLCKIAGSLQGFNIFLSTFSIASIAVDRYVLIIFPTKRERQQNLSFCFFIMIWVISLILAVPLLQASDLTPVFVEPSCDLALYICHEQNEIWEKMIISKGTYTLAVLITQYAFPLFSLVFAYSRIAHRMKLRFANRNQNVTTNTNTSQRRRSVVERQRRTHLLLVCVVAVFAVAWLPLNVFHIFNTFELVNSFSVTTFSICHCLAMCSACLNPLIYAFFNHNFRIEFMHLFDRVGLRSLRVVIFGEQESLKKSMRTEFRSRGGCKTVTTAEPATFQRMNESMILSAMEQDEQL
Protocol: All in vitro experiments were carried out using either HEK293 cells (Homo sapiens, embryonic kidney, DSMZ (German Collection of Microorganisms and Cell Cultures) ACC 305) or COS-7 cells (African green monkey, cercopithecus aethiops, kidney, DSMZ (German Collection of Microorganisms and Cell Cultures) ACC 60). HEK293 cells were kept in Dulbecco’s Modified Eagle’s Medium (DMEM) with Ham’s F-12 (v/v) and 15% (v/v) heat-inactivated fetal calf serum (FCS), while COS-7 cells were cultured in DMEM with 10% (v/v) FCS and 1% (v/v) Penicillin-Streptomycin. All cells were kept at 37 °C under a humidified atmosphere (5% CO2).
NPR-11 activation was read out in the Gi/o pathway by a cAMP reporter gene assay in transiently transfected HEK293 cells as described previously. Briefly, HEK293 cells were grown to 70% confluency and transiently co-transfected with the receptor plasmid (2 μg) and the reporter gene plasmid pGL4.29 [luc2P/CRE/Hygro] (Promega; 2 μg) with MetafectenePro (Biontex). Cells were then re-seeded into 384-well plates. On the next day, the medium was removed, and the cells were stimulated with peptide solution (20 μl) containing 5 μM forskolin (stimulating intracellular cAMP levels) in DMEM and incubated for 4 h. Luciferase substrate OneGlo in lysis buffer (Promega) was added and incubated for 5 min. Luminescence was measured in a microplate reader (Tecan Spark). […]

Nluc::NPR-11 [3] = target: T1, Nluc::NPR-11; test: biochemical; assay type: binding, C. elegans; remark: listed apart in the source
Protocol: as §1
as §2, with “usage. […]” for “usage.”
Luminescence (L) and fluorescence (F) were detected with a microplate plate reader (Tecan Spark) using the following filter set: donor = 430–470 nm, acceptor = 550–700 nm with 1000 ms integration time. BRET was calculated by dividing F values by L values. […]

NPR-11::Nluc = test: Enhanced bystander BRET in vivo, NPR-11::Nluc and CAAX::mNG (Fig. 4C); set-up: species or system C. elegans
Protocol: Luminescence levels depended on the used strain, reaching (without ligand) approximately 2000 AU in Nluc::npr-11 animals and up to 32,000 AU in Nluc::lat-1 expressing worms. For enhanced bystander BRET analyses, 30 cut worms (APR716 and APR718) in 50 μl HBSS buffer were incubated for 10 min with 10 μl of Nano-Glo Live Cell Reagent (5x stock). Luminescence and fluorescence were measured once prior to peptide stimulation. Afterwards, FLP-34-1 (final concentration 5 μM) or H2O with 0.5% BSA and 2.5% DMSO as control were added to each well and luminescence and fluorescence was measured over the course of 80 min. The acceptor filter for this setting was altered to 505–605 nm, while the donor filter remained at 430–470 nm, as before.

NPR-11 [4] = target: T2, NPR-11; details: read-out: inhibition binding constant Ki; TAM-FLP-34-1 as fluorescent tracer; ref [35]; cited from earlier work

Row | Compound | Kd (Nluc::NPR-11 [1]) | EC50 (NPR-11 [2]) | Ki (Nluc::NPR-11 [3]) | time after which BRET increases again (NPR-11::Nluc; 5 μM FLP-34-1) | change of bystander BRET signal over time (NPR-11::Nluc; 5 μM FLP-34-1 vs untreated controls) | Ki (NPR-11 [4])
1 | CC[C@H](C)[C@H](NC(=O)[C@H](C)NC(=O)[C@H](CO)NC(=O)[C@H](C)NC(=O)[C@H](Cc1ccccc1)NC(=O)[C@@H](NC(=O)[C@H](CO)NC(=O)[C@@H](NC(=O)[C@H](CC(=O)O)NC(=O)[C@H](C)NC(=O)c1ccc2c(c1)C(=O)OC21c2ccc(N(C)C)cc2Oc2cc(N(C)C)ccc21)[C@@H](C)CC)[C@@H](C)O)C(=O)N[C@@H](CC(N)=O)C(=O)N[C@@H](CC(N)=O)C(=O)N[C@@H](C)C(=O)NCC(=O)N[C@@H](CCCNC(=N)N)C(=O)N[C@@H](CC(C)C)C(=O)N[C@@H](CCCNC(=N)N)C(=O)N[C@@H](Cc1ccc(O)cc1)C(N)=O [TAM-FLP-34-1] (5TAMRA-ADISTFASAINNAGRLRY-NH2) | 1400 nM | 0.5 nM |  |  |  | 
2 | ADISTFASAINNAGRLRY-NH2 [FLP-34-1] |  | 2.3 nM | 1100 nM | > 70 min | decrease of BRET signal | 107 nM
